Reference: patent US20130137767A1, “Methods and Compositions for Treating Arthritis with Docosahexaenoic Acid” (DSM IP ASSETS B.V., priority 2010, published 2013)

How the values were obtained:
Assay type in all cases: in vivo, Male DBA/1O1aHsd mice
[1] = system: Collagen-Induced Arthritis (CIA); experiment: Collagen-Induced Arthritis, ethyl esters (CIA-EE, Example 1): clinical arthritis severity and incidence; settings: for arthritis severity score / arthritis severity score as area under the curve (AUC): days 18-45; for arthritis severity score as area under the curve (AUC): FIG. 2
Source text: The anti-arthritic activity of DHA, DPAn6, DHA/DPAn6 (DHA S-oil ratio) and DHA/EPA (fish oil ratio) ethyl esters (EE) in a chronic mouse model of inflammation, Collagen-Induced Arthritis (CIA), was studied.
Male DBA/1O1aHsd mice (3.5-4 weeks of age) were randomized by weight and enrolled in the study after a three day quarantine in which animals were fed the AlN-93G diet with a modified base fat: 1 part flax seed oil (flax), 9 parts hydrogenated coconut oil (HCOC) and 21 parts high-oleic safflower oil (HO-SAFF). 15 animals were enrolled per study group, with the exception of the No Disease control that had 4 animals. Study groups consisted of:
(§1) The appropriate ethyl esters were blended into the base diet to provide approximately 2500 and 5000 mg/kg polyunsaturated fatty acid (PUFA) per day. The human equivalent doses (HED) were approximately 12 g/day and 22 g/day, respectively. The 2500 mg/kg EE diets contained the following fat blend: 1 part flax, 12 parts HCOC and 23 parts HO-SAFF. The 5000 mg/kg EE diets contained a fat blend consisting of: 1 part flax, 5 parts HCOC and 20 parts HO-SAFF. All study diets provided a total of 7% fat. Animals were fed study diets for approximately 30 days prior to the first collagen injection at day 0 and remained on the diets until study termination (day 45). Animals in the No Disease control and Dexamethasone groups were fed the diet containing OA-EE. Following a second collagen injection on day 21, arthritis severity was scored daily. Blood samples were collected at day 21 and day 45. Joints, 6 per an animal, were collected for histology and pathology on day 45.
Data was analyzed and compared by one-way ANOVA using the Bonferroni post-test to compare treatment groups to respective placebo control and to make comparisons between treatment groups (GraphPad, Prism, Version 4.0). Effects were considered to be statistically significant at p<0.05.
Arthritis severity was assessed from day 18 to 45; a score of 0 represented an animal devoid of clinical arthritis symptoms and a score of 5 represented advanced clinical arthritis. Scores from 0-5 (most severe) were assigned to each digit on the fore and hind limbs based on erythema, swelling and mobility and the mean arthritis severity per animal was determined.
The incidence of disease was reduced in animals treated with DHA-EE (FIG. 3A/B). A clinical arthritis score greater than 0 was considered diseased. The incidence of disease at day 45 was 13% in animals treated with 2500 mg/kg DHA-EE, as compared to 100% disease incidence in OA-EE (placebo) control animals.

[2] = system: Collagen-Induced Arthritis (CIA); experiment: CIA EE vs. TG (Example 2): paw, knee and six-joint histopathology; settings: day 45
Method: Male DBA/1O1aHsd mice were enrolled, quarantined, and feed study diets following the protocols described in Example 1 (CIA-EE Study). EE and TG oils were blended into the base diet to provide 2500 mg/kg PUFA per day (HED approximately 12 g/day). A single dose of PUFA per day (HED approximately 5 g/day). The 1000 mg/kg DHA-EE dose was equivalent to the amount of DHA administered in the DHA/EPA-EE blend. The fat blend the 2500 mg/kg EE diets consisted of approximately: 1 part flax, 12 parts HCOC and 23 parts HO-SAFF; 1000 mg/kg EE diet: 1 part flax, 12 parts HCOC and 32 parts HO-SAFF; 2500 mg/kg DHASCO® oil diet: 1 part flax, 8 parts HCOC, 17 parts HO-SAFF and 15 parts soybean oil; 2500 mg/kg DHA-S oil diet: 1 part flax, 5 parts HCOC, 16 parts HO-SAFF and 6 parts soybean oil. 2500 mg/kg DHA/EPA (Nordic Naturals fish oil) diet: 1 part flax, 21 parts HCOC, 18 parts HO-SAFF and 13 parts soybean oil. The monounsaturate control animals received a fat blend of 1 part flax, 7 parts HCOC and 25 parts HO-SAFF. All study diets provided a total of 7% fat. Animals in the No Disease control and Dexamethasone groups were fed the diet containing OA-EE. Mice received collagen injections on day 0 and day 21, as described previously. Blood samples were collected at day 21 and day 45. At day 45, joints were collected for histology and pathology. Placebo-treated diseased animals had histopathology changes, consistent with those seen in type II collagen induced arthritis, in most joints, with scores ranging from normal to severe. Microscopic alteration included infiltration of synovium and periarticular tissue with neutrophils and mononuclear inflammatory cells (inflammation), marginal zone pannus and bone resorption and cartilage damage (proteoglycan loss, chondrocyte death and collagen matrix destruction). Four-paw, knee and joint parameters were assigned a quantitative score 0=normal, 1=minimal, 2=mild, 3=moderate, 4=marked, 5=severe and a total score was determined per animal.

[3] = system: anti-collagen antibodies; experiment: CIA-EE (Example 1): anti-collagen antibody production; settings: measured day 21 and day 45, vs OA-EE placebo
Method: as §1
Anti-collagen antibody production was measured prior to the antigen challenge (day 21) and at study termination (day 45). […] Means (n=5)±SD. *p<0.05**p<0.01.

CC/C=C\C/C=C\C/C=C\C/C=C\C/C=C\C/C=C\CCC(=O)OCC [DHA-EE]
arthritis severity score ([1]; 2500 mg/kg in diet, FIG. 1A): reduced arthritis severity
arthritis severity score as area under the curve (AUC) ([1]; 2500 mg/kg, vs 2500 mg/kg OA-EE (placebo) control): significantly reduced arthritis severity
arthritis severity, comparison between treatment groups ([1]; 5000 mg/kg): more potent than DHA/EPA-EE
arthritis severity score ([1]; 5000 mg/kg in diet, FIG. 1B): reduced arthritis severity
arthritis severity score as area under the curve (AUC) ([1]; 5000 mg/kg, vs 5000 mg/kg OA-EE (placebo) control): significantly reduced arthritis severity
incidence of disease (clinical arthritis score greater than 0) ([1]; day 45, 2500 mg/kg, FIG. 3A): 13%
arthritis severity, comparison with dexamethasone ([1]; dose not stated in sentence (2500 and 5000 mg/kg tested), dexamethasone 0.1 mg/kg): as effective as dexamethasone
knee histopathology parameters ([2]; 1000 mg/kg): not significantly affected
paw histopathology parameters ([2]; 1000 mg/kg): not significantly affected
six-joint histopathology parameters ([2]; 1000 mg/kg): not significantly affected
six-joint histopathology parameters ([2]; 2500 mg/kg PUFA, FIG. 10): significantly reduced towards normal
paw histopathology parameters (inflammation, pannus, cartilage damage, bone damage) ([2]; 2500 mg/kg PUFA, vs placebo control, FIG. 10): reduced
level of plasma anti-collagen antibodies ([3]; 2500 mg/kg): reduced the level of anti-collagen antibodies
level of plasma anti-collagen antibodies ([3]; 5000 mg/kg): reduced the level of anti-collagen antibodies
